Data on two compounds can be found in patent EP4631502A1 (Nicoventures Trading Limited, priority 2024, dated 2025).

For assay [1], the target named is T1, Human adenosine A1 receptors (Homo sapiens, UniProt P30542).
T1 sequence (P30542 1-326): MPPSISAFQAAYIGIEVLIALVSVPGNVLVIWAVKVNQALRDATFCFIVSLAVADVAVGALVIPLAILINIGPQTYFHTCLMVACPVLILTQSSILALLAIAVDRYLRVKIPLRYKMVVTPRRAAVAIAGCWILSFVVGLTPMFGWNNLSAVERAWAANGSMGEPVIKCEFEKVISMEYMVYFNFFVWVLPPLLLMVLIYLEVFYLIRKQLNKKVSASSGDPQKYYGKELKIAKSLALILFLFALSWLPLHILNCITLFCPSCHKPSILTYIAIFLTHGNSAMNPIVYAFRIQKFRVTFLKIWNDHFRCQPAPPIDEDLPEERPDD
Nature of the assay: biochemical.
Method: Binding experiments were performed according to the data sheet provided by the supplier of the receptor (Perkin Elmer) with modifications:
Approximately 2.4-3 µg protein-containing membranes were incubated for 60 min in a total volume of 100 µL at 27°C: assay buffer:
Test compound data are presented as specific radioligand binding to the receptor.
(§4) In case of ill-defined curves or algorithm-generated minima below the defined non-specific binding, the IC50 value was determined by graphical extrapolation.

Assay [2] deals with T2, human adenosine A2A receptors (Homo sapiens, UniProt P29274). The assay is described as follows: Adenosine A2A receptor radioligand binding assay ([125I]-ZM241385 competition, membranes of HEK293 cells).
Method: Approximately 0.4-0.9 µg protein-containing membranes were incubated for 60 min in a total volume of 100 µL at 37°C. assay buffer:
Test compound data are presented as specific radioligand binding to the receptor. Specific binding is defined as the difference between the total binding and the non-specific binding determined in the presence of the reference compound as detailed in the previous sections.
as §4
Assay [3] has as its target Adenosine A2A Receptor (Rattus norvegicus, UniProt P30543). Nature of the assay: Adenosine A2A receptor functional assay ([35S]-GTPγS binding, rat striatal membranes). Type of assay: biochemical. The procedure: Male Sprague Dawley rats were sacrificed by decapitation, rat striata were dissected on ice, frozen in liquid nitrogen and stored at -80°C. The tissue was homogenized (20 strokes with a glass-teflon homogenizer, 2000 rounds per minute) at 4°C in 10 mL of 10 mM Tris-HCl pH 7.4, 1 mM EDTA, and centrifuged for 15 min at 25,000 x g. The centrifugation step was repeated twice and the pellet finally resuspended in 50 mM Tris-HCl pH 7.4, 4 mM MgCl2 and 1 mM EDTA, frozen in liquid nitrogen and stored at-80°C until usage.
(§1) Membranes were preincubated with the respective effectors for 15 min, the incubation was initiated by the addition of 200 pM [^35S]-GTPγS (60 min incubation at 30°C in a final volume of 200 µL assay buffer). assay buffer:
(§2) From every data point the non-specific binding (binding of [^35S]-GTPγS in the presence of 10 µM GDP) was subtracted and the value-normalized to the respective control signal of the respective plate.
(§3) Namely, concentration-response curves of the test compound extracts in the agonist and antagonist mode were normalized to 0% change. In the agonist mode 0% change corresponds to the level of the basal signal; in the antagonist mode 0% change corresponds to the maximal stimulation of the receptor by the reference agonist. In the agonist mode -100% change correponds to 0% specific binding and in the antagonist mode to the basal signal (specific signal without any effector added).
In case of ill-defined curves, the IC50 was determined by graphical exploration of the algorithm-generated curve. […]

In assay [4] the test system is human neuroblastoma cell line SHSY5Y. The assay is described as follows: Transcriptomics study (RNA sequencing, gene set enrichment analysis of DEG data). It is filed as cell-based. Conditions: SHSY5Y cells, 20 nM, 24 hr. How it is done:
Cells from human neuroblastoma cell line SHSY5Y were treated with 20 nM of each of the compounds in cell culture media for a 24 hr incubation under normal cell culture conditions. […] DMSO was used as control treatment. Total RNA was isolated using the Qiagen RNAeasy kit according to the manufacturer's protocols and sequenced using short-read Illumina sequencing. The experiment was repeated in three separate biological experiments. Libraries were prepared with the NEBNext Ultra II Directional RNA Library Prep Kit for Illumina protocol according to supplier recommendations.
Briefly, the key stages of this protocol are successively: the purification of polyA-containing mRNA molecules using poly-T oligo-attached magnetic beads from 100 ng total RNA (using the Magnetic mRNA Isolation Kit from NEB), a fragmentation using divalent cations under elevated temperature to obtain approximately 300 bp pieces, double-stranded cDNA synthesis, and finally Illumina adapter ligation and cDNA library amplification by PCR for sequencing. Sequencing was then carried out on paired-end 100 b using the NovaSeq 6000 system. (NovaSeq Control Software V1.7.5). Image analysis and base calling was performed using Illumina Real Time Analysis with default parameters.
Raw data was mapped to reference human genome using STAR pipeline (1) for alignment and quantification of transcripts. Differential gene expression analysis was carried out on read count data using Deseq2 package in R (2). Gene set enrichment analysis was carried out using R package on differentially expressed gene (DEG) data using R package clusterProfiler (3,4) to understand biological, molecular and KEGG processes affected with compound treatment. […] Gene Set Enrichment Analysis (GSEA) was used to interpret gene expression data by focussing on groups of genes that share common biological functions, chromosomal locations, or regulation (5). […] These rankings were further analysed to understand differences in biological function attributed to gene groups and subsequent effects on cell function and response by treatment with compounds according to the present disclosure.

The target in assay [5] is T2, human adenosine A2A receptors. Nature of the assay: Human recombinant A2A assay ([35S]-GTPγS binding, HEK293 background). Type of assay: biochemical. Set-up: purchased PerkinElmer (Rodgau, Germany) RBHA2AM400UA; host or cells: HEK293 cell membranes. The text has this:
Both signal transduction pathways are in principle detectable by the GTPγS technique.
On the technique in general: GTPγS is a poorly hydrolysed GTP analogue; its binding reports G protein activation.

Assay [6] concerns adenosine receptors. Nature of the assay: [35S]-GTPγS binding functional assays, basal signal and overall classification (preparation not specified). It is filed as biochemical. As to conditions: conclusion from agonist and antagonist mode results. How it is done: as §2, §3
In principle, the [^35S]-GTPγS-binding assay always measures the activation state of all GPCRs present in the homogenates. Even without addition of any effector some GPCRs are activated leading to the basal signal of G protein activation. One reason for effector-independent activation is constitutive activity of receptors, another reason is the putative biological activity of membrane preparations (so could e.g. effectors/agonists be generated in situ by endogenous enzymes of the membrane preparations). A third reason might be that the membrane preparations themselves contain endogenous agonists.
This method is especially suitable to identify antagonistic actions of test compounds. A receptor is maximally pre-stimulated by a receptor-specific agonist (meaning all G proteins coupled to this receptor are maximally activated).

Assay [7] concerns the target T1, Human adenosine A1 receptors. The assay is described as follows: Adenosine A1 receptor functional assay ([35S]-GTPγS binding, assay conditions II). It is filed as biochemical. The arrangement: purchased PerkinElmer (Rodgau, Germany) ES-010-M400UA; host or cells: CHO-K1 cell membranes. Conditions: 1. and 2. Measurement. How it is done: as §1, §2, §3
In case of ill-defined curves, the IC50 was determined by graphical exploration of the algorithm-generated curve.

Assay [8] has as its target Adenosine A1 receptor (Rattus norvegicus, UniProt P25099). As to conditions: read-out: IC50 Mean (footnote: Literature value determined in rat), Ji et al., J Med. Chem. 39, 781-788 (1996); cited from earlier work.
[9] abbreviates: IC50 1.M, first measurement, [3H]-DPCPX 1 nM, 60 min, 27°C.
The mark [10] stands for this setting: IC50 2.M, second measurement, [3H]-DPCPX 1 nM, 60 min, 27°C.
Where [11] appears, read: IC50 1.M, first measurement, [125I]-ZM241385 20000 cpm, 60 min, 37°C.
The mark [12] stands for this setting: IC50 2.M, second measurement, [125I]-ZM241385 20000 cpm, 60 min, 37°C.

T2 sequence (P29274 whole entry): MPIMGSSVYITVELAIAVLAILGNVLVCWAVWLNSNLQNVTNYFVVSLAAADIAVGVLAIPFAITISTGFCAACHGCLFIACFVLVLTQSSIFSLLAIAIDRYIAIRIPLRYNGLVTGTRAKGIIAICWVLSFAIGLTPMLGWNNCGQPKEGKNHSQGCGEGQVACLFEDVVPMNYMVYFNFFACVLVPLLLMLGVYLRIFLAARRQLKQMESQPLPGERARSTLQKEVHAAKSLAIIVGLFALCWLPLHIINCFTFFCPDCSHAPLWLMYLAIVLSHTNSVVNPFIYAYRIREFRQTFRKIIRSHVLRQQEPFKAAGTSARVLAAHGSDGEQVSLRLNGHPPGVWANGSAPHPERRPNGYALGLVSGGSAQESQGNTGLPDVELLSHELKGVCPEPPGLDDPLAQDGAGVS
Sequence of Adenosine A2A Receptor (P30543 whole entry): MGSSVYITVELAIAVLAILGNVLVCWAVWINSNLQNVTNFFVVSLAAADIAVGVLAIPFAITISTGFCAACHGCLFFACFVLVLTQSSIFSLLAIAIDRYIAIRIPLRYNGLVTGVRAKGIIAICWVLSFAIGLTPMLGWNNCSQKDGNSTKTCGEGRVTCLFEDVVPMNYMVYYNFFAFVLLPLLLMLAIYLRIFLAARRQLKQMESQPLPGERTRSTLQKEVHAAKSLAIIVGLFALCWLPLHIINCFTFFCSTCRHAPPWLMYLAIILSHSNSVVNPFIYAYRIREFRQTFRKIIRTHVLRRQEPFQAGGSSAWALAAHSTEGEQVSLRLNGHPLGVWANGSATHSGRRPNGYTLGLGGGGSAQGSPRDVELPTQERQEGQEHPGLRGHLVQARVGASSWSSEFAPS
Sequence of Adenosine A1 receptor (P25099 whole entry): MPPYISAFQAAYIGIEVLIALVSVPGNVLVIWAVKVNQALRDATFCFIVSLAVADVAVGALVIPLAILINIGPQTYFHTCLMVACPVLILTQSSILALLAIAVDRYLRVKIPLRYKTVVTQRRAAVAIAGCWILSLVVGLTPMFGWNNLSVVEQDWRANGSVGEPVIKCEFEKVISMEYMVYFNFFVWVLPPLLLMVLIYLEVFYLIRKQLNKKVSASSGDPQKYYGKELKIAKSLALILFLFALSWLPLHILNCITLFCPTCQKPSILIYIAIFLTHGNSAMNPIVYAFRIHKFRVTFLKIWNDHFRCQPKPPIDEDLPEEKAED

Regarding `COc1c(O)cc2oc(-c3ccc(O)cc3)cc(=O)c2c1O` [Hispidulin, 5,7-Dihydroxy-2-(4-hydroxyphenyl)-6-methoxy-4H-1-benzopyran-4-one], the IC50 in assay [1] (setting [9]) was determined as 34 µM; in assay [1] (setting [10]) it was 36 µM; in assay [1] (IC50 Mean, mean of 1.M and 2.M), 35 µM; in assay [2] (setting [11]), 1.8 µM; in assay [2] (setting [12]) it was 3.2 µM; in assay [2] (IC50 Mean, mean of 1.M and 2.M) it was 2.5 µM. For the same compound, the concentration for half-maximal inhibition (IC50) in assay [7] (IC50 in µM agonist mode, agonist mode (effect on basal signal)) is 40 µM; in assay [7] (IC50 in µM antagonist mode, antagonist mode (CCPA-stimulated signal)), 20 µM. In assay [3], the “difference between the agonist and antagonist mode in the rat adenosine assay” value is on record as “at least 500 fold”. For the same compound, the “Effect (common themes from gene set enrichment analysis of DEG data)” value in assay [4] (comparison Caffeine vs Treatment) was “Suppression of adrenergic signaling in cardiomocytes”; in assay [4] (comparison Caffeine vs Treatment, listed as Hispdulin), “Suppression of blood circulation, muscle contraction. Activation of negative regulation of muscle cell apoptosis”; in assay [4] (comparison DMSO vs Treatment), “Suppression of renin-angiotensis sytem, renin secretion”. Further, the EC50 in assay [5] is about 400 µM. In addition, the classification result in assay [6] was “antagonist to the adensosine A1 receptor”.

Regarding `COc1cc2oc(-c3ccc(O)cc3)cc(=O)c2c(O)c1OC` [Cirsimaritin], the half-maximal inhibitory concentration (IC50) in assay [1] (setting [9]) is 617 µM; in assay [1] (setting [10]), 122 µM; in assay [8] it was 1.2 µM; in assay [2] (setting [11]) it was 1.3 µM; in assay [2] (setting [12]), 2.1 µM; in assay [2] (IC50 Mean, mean of 1.M and 2.M), 1.7 µM.

For orientation: IC50 means the concentration needed to halve the response being measured. What is called EC50 is the midpoint of the concentration-response curve.
